Results: patent US20130089627A1, “METHOD FOR TREATING A CANCER CAUSED BY CANCER STEM CELLS” (NEW BELLUS ENTERPRISES CO., LTD., priority 2011, published 2013)

How the values were obtained:
[1] = tested on: human lung cancer stem cells (Lung CSC); assay: MTT cytotoxicity test, lung cancer stem cells; format: cell-based
Description: (§1) The purpose of the present invention is to screen for the A. camphorata extracts with anti-cancer activity. MTT (3-(4,5-dimethylthiazol-2-yl)-2,5-diphenyltetrazolium bromide) assay was used to complete the cytotoxicity test. Human lung cancer stem cells (lung CSC), human Adult fibroblast-1 (AF-1), glioblastoma multiforme cancer stem cells (GBM CSC), human Adult fibroblast-2 (AF-2), head and neck squamous cell carcinoma cancer stem cells (HNSCC CSC), colorectal cancer stem cells (CRC CSC), as well as breast cancer stem cells (Breast CSC), hepatoma cancer stem cells (hepatoma CSC), leukemia cancer stem cells (leukemia CSC) and gastric cancer stem cells (Gastric CSC) are used in cell experiments of the present invention.
(§2) The principle of cytotoxic activity test (MTT assay) is that succinate dehydrogenase in the mitochondria of a living cell can reduce MTT (3-(4,5-dimethylthiazol-2-yl)-2,5-diphenyltetrazolium bromide), and blue-violet formazan was formed under reaction with cytochrome C. Generally, the amount of formazan generated is proportional to the activity of the mitochondria and the number of living cells. After adding dimethyl sulfoxide (DMSO) to dissolve formazan, the number of living cells can be estimated by the optical density (OD) value. […]

[2] = tested on: colorectal cancer stem cells (CRC CSC); assay: MTT cytotoxicity test, colorectal cancer stem cells; format: cell-based
Description: as §1, §2

[3] = tested on: breast cancer stem cells (Breast CSC); assay: MTT cytotoxicity test, breast cancer stem cells; format: cell-based
Description: as §1, §2

[4] = tested on: Glioblastomas multiform cancer stem cells (GBM CSC); assay: MTT cytotoxicity test, GBM cancer stem cells (subline not stated); format: cell-based
Description: as §1, §2

[5] = tested on: Lung adenocarcinoma CD133 positive cancer stem cells; assay: MTT cytotoxicity test, lung adenocarcinoma CD133 positive cancer stem cells; format: cell-based
Description: (§3) The principle of cytotoxic activity test (MTT assay) is that succinate dehydrogenase in the mitochondria of a living cell can reduce MTT (3-(4,5-dimethylthiazol-2-yl)-2,5-diphenyltetrazolium bromide), and blue-violet formazan was formed under reaction with cytochrome C. Generally, the amount of formazan generated is proportional to the activity of the mitochondria and the number of living cells. After adding dimethyl sulfoxide (DMSO) to dissolve formazan, the number of living cells can be estimated by the optical density (OD) value.
(§4) The definition of half maximal inhibitory concentration (IC50) is the concentration for survival rate of 50% under the reaction with drugs or compounds.

[6] = tested on: oral cancer stem cells (Oral CSC); assay: MTT cytotoxicity test, oral cancer stem cells; format: cell-based
Description: as §3, §4

[7] = tested on: cancer stem cells; assay: MTT cytotoxicity tests of 4-acetyl-antroquinonol B, summary in words; format: cell-based; conditions: lung adenocarcinoma CD133 positive, oral, GBM, breast and colorectal cancer stem cells
Description: as §3

[8] = tested on: lung cancer stem cells; assay: Co-administration with chemotherapy drugs, lung cancer stem cells; format: cell-based, human
Description: as §4
(§5) Cisplatin: cis-diammineplatinum(II) dichloride (Sigma-Aldrich, USA)
(§6) Taxol: Paclitaxel (Sigma-Aldrich, USA)
(§7) According to the pretested half maximal inhibitory concentration (IC50) of D1˜D5, different cancer stem cells were used to test the cytotoxic concentration for (1) the co-administration of A. camphorata extracts with the chemotherapy drug, Cisplatin; (2) the co-administration of A. camphorata extracts with the chemotherapy drug, Taxol.

[9] = tested on: Glioblastomas multiform cancer stem cells; assay: Co-administration with chemotherapy drugs, GBM cancer stem cells; format: cell-based
Description: as §4, §5, §6, §7

[10] = tested on: Head and neck squamous cell carcinoma cancer stem cells; assay: Co-administration with chemotherapy drugs, HNSCC cancer stem cells; format: cell-based
Description: as §4, §5, §6, §7

[11] = tested on: colorectal cancer stem cells; assay: Co-administration with chemotherapy drugs, colorectal cancer stem cells; format: cell-based
Description: as §4, §5, §6, §7

[12] = tested on: breast cancer stem cells; assay: Co-administration with chemotherapy drugs, breast cancer stem cells; format: cell-based
Description: as §4, §5, §6, §7

[13] = tested on: Hepatoma cancer stem cells; assay: Co-administration with chemotherapy drugs, hepatoma cancer stem cells; format: cell-based
Description: as §4, §5, §6, §7

## COC1=C(OC)C(OC(C)=O)C(C/C=C(\C)CCC2(C)CCC(=O)O2)C(C)C1=O (stereo not shown) [4-acetyl-antroquinonol B]
[1]
  half maximal inhibitory concentration (IC50) of 4-acetyl-antroquinonol B: 12.37 µg/mL
[2]
  half maximal inhibitory concentration (IC50) of 4-acetyl-antroquinonol B: 9.72 µg/mL
[3]
  half maximal inhibitory concentration (IC50) of 4-acetyl-antroquinonol B: 20.77 µg/mL
[4]
  half maximal inhibitory concentration (IC50) of 4-acetyl-antroquinonol B: 18.2 µg/mL
[5]
  half maximal inhibitory concentration (IC50) of 4-acetyl-antroquinonol B: 16.4 µg/mL
[6]
  half maximal inhibitory concentration (IC50) of 4-acetyl-antroquinonol B: 14.37 µg/mL
[7]
  inhibitory effects on the growth of cancer stem cells (in words): effective inhibitory effects on the growth of cancer stem cells

## N.N.[Cl][Pt][Cl] [Cisplatin, cis-diammineplatinum(II) dichloride]
[8]
  Cisplatin IC50: 17.98 µg/mL
[9]
  Cisplatin IC50: 23.33 µg/mL
[10]
  Cisplatin IC50: 18.87 µg/mL
[11]
  Cisplatin IC50: 42.83 µg/mL
[12]
  Cisplatin IC50: 20.23 µg/mL
[13]
  Cisplatin IC50: 40.15 µg/mL

## CC(=O)O[C@H]1C(=O)[C@@]2(C)[C@H]([C@H](OC(=O)c3ccccc3)[C@]3(O)C[C@H](OC(=O)[C@H](O)[C@@H](NC(=O)c4ccccc4)c4ccccc4)C(C)=C1C3(C)C)[C@]1(OC(C)=O)CO[C@@H]1C[C@@H]2O [Taxol, Paclitaxel]
[8]; Homo sapiens, read-out: Taxol IC50
  IC50: 0.0137 µg/mL
[9]; read-out: Taxol IC50
  IC50: 0.0207 µg/mL
[10]; read-out: Taxol IC50
  IC50: 0.0102 µg/mL
[11]; read-out: Taxol IC50
  IC50: 0.0317 µg/mL
[12]; read-out: Taxol IC50
  IC50: 0.00983 µg/mL
[13]; read-out: Taxol IC50
  IC50: 0.0335 µg/mL
